Measured values: patent publication US20100288276A1, “COMPOSITIONS FOR TREATING PARKINSON'S DISEASE” (VECTURAL LIMITED, priority 2007, published 2010)
Where a name gives a salt, the structure may show the parent alone. Read-outs that look alike come from different tables or passages of the source.

Tests used:
[1] = Visual assessment of pMDI suspension formulations; assay type: physicochemical
Procedure: Nine formulations (see Table 1 and Table 2) were manufactured.
Reduction of the drug concentration (300 μg/50 μl) was investigated in Formulations 4-6 (see FIGS. 5-8).

[2] = Pharmacokinetics after pulmonary inhalation of apomorphine; assay type: in vivo, patients; settings: for AUC(0-t) / AUC(0-inf) / Cmax / Tmax: human, plasma, inhaled or intranasal; for AUC(0-t): read-out: AUC(0-t), Mean (SD) (converted); for AUC(0-inf): read-out: AUC(0-∞), Mean (SD) (converted); for Cmax: read-out: Cmax, Mean (SD)
[3] = Safety results: treatment emergent adverse events after inhaled apomorphine; assay type: in vivo, patients; settings: Nominal Doses of 400 μg, 1000 μg and 1600 μg
Procedure: Safety results: Few patients experienced treatment emergent adverse events (TEAEs) and there were no notable differences in incidence or types of TEAEs among the treatment groups. […] Most common TEAEs at <24 h post dose were nervous system disorders.

[4] = system: Parkinson's Disease patients; assay: Therapeutic effect (conversion from off to on state) after pulmonary inhalation, clinical trial; assay type: in vivo
[5] = system: Parkinson's Disease patients; settings: injected under the skin; cited from earlier work
[6] = nasal administration; cited from earlier work
[7] = Solubility in pMDI propellant formulations; assay type: physicochemical; settings: within ethanol-based HFA 134a pMDI formulations
Procedure: Previously a low dose (<25 μg/50 μl) HFA134a/HFA 227 solution formulation has been produced but only at high ethanol contents (50% w/w).

[8] = 1000 μg inhaled, N = 6, 30% apomorphine in 70% lactose blend

For `CN1CCc2cccc3c2[C@H]1Cc1ccc(O)c(O)c1-3` [Apomorphine, apomorphine], the “suspension behaviour (visual assessment)” value ([1]; 264 μg/50 μl suspension in HFA 227) was “cream (float)”, the “suspension behaviour (visual assessment)” value ([1]; 300 μg/50 μl in pure HFA134a) was “rapidly sediment” and the “suspension behaviour (visual assessment)” value ([1]; 600 μg/50 μl in pure HFA134a) was “rapidly sedimented”. For the same molecule, the density ([1]; density matched at approximately 60% w/w HFA 227 and 40% w/w HFA134a) was “about 1.33 g/ml”, the “k, Mean (SD)” value ([2]; 400 μg inhaled, N = 6, 20% apomorphine in 80% lactose blend) was 0.01 (0.00) and the “tmax, Mean (SD)” value ([2]; 400 μg inhaled, N = 6, 20% apomorphine in 80% lactose blend, in min) was 1.0 (0.0). For the same molecule, the “AUC(0-∞), Mean (SD)” value [2, 8] was 216.93 (99.30) ng · min/mL, the “k, Mean (SD)” value [2, 8] was 0.01 (0.00) and the “k, Mean (SD)” value ([2]; 1600 μg inhaled, N = 6, 30% apomorphine in 70% lactose blend) was 0.02 (0.00). It also gave an AUC(0-t) ([2]; 400 ug) of 0.792 ng·h/mL, an AUC(0-inf) ([2]; 400 ug) of 0.945 ng·h/mL and a Cmax ([2]; 400 ug) of 3.03 ng/mL. The Tmax ([2]; 1000 ug, 1000 μg inhaled, N = 6, 30% apomorphine in 70% lactose blend, read-out: tmax, Mean (SD) (converted)) was 2.6 min, the AUC(0-t) ([2]; 1000 ug) was 2.81 ng·h/mL and the Cmax ([2]; 1000 ug) was 10 ng/mL. For the same molecule, the Tmax ([2]; 1600 ug, 1600 μg inhaled, N = 6, 30% apomorphine in 70% lactose blend, read-out: tmax, Mean (SD) (converted)) was 2.2 min, the AUC(0-t) ([2]; 1600 ug) was 4.51 ng·h/mL and the AUC(0-inf) ([2]; 1600 ug) was 5.03 ng·h/mL. The Cmax ([2]; 1600 ug) was 11.9 ng/mL, the Tmax ([2]; Tmax / time of peak apomorphine plasma concentration, pulmonary inhalation) was 1 to 3 min and the “dose proportionality of AUC(0-t), AUC(0-∞) and Cmax” value ([2]; pulmonary inhalation, 400-1600 μg) was “Dose proportionality was observed”. For the same molecule, the tolerability [3] was “well tolerated”, the “mean duration of the therapeutic effect” value ([4]; clinical trial, pulmonary inhalation) was 75 min and the “onset of the therapeutic effect (conversion)” value ([4]; majority of patients, after inhaling apomorphine) was ≤ 10 min. The “conversion from the off to the on state” value ([4]; some patients, as quickly as, pulmonary inhalation) was 2 min, the “period for which the effect is maintained” value [5] was “about 60 minutes” and the “time to bring about an on time” value [5] was 7 to 10 min. For the same molecule, the Tmax [6] was “approximately 15 minutes”.

With `CN1CCc2cccc3c2[C@H]1Cc1ccc(O)c(O)c1-3` [apomorphine hydrochloride] the solubility [7] was “low solubility”.
